From a melting point compilation (Tetko et al.; mined from patent text by program, amines drawn as free bases though some values may be those of a salt)

Structure (SMILES) | melting point [°C]
CCc1nc2c(C)cc(C)nc2n1Cc1ccc2c(c1)CCc1ccccc1N2Cc1nnn[nH]1 | 177 to 179
Sc1nc(-c2ccccc2)c(-c2cccnc2)[nH]1 | 317 to 323
[N-]=[N+]=C1C(=O)CCc2ccccc21 | 42.5 to 44.2
CC(C)S(=O)(=O)c1cnc2c(c1)nc(CC(C)(C)C)n2CC1CCOCC1 | 201
Cn1c2ccccc2c2sc3c(C=O)cccc3c21 | 128 to 130
CSc1ncc(Cl)cc1C#N | 147 to 149
O=C(COCc1cccs1)C12CC3CC(CC(C3)C1)C2 | 57.2 to 58.3
N#Cc1ccc(N2C(=N)C3(CCCC3)NC2=O)cc1C(F)(F)F | 212 to 213
C=C1Cc2c(n(-c3ccccc3)c3ncccc3c2=O)O1 | 259 to 261
COc1c2c(c(OC)c(OC)c1OC)CC(CCCOc1ccc(C(=O)O)cc1)C2 | 160 to 161
CCOc1cc2cc(CO)c(CO)c(-c3ccnc(-n4nc(-c5cccnc5)c5ccccc5c4=O)c3)c2cc1OCC | 222
CCCCCCCCCCN(C[C@H]1CCC[C@H](CN(CCCCCCCCCC)C(=O)Nc2ccc(N(C)C)cc2)C1)C(=O)Nc1ccc(N(C)C)cc1 (relative stereo) | 115 to 117
COC(=O)c1cc(OCCOc2cccc3ccccc23)cc(OCCOc2cccc3ccccc23)c1 | 132 to 137
O=C(NC(=NCCCc1c[nH]cn1)NCCSCc1csc(N=C2NCCCN2)n1)c1ccccc1 | 175 to 176
NC1CN(c2c(F)cc3c(=O)c(C(=O)O)cn(C4CC4)c3c2F)C1 | 214 to 216
Cc1cc2c3c(c1)NC(=O)c1ccccc1N3CC2 | 222 to 224
N#Cc1cc(-c2cccnc2)nn1-c1ccc(NCC2Cc3ccccc3C2)cc1 | 156 to 158
CSc1ccc(C(=O)N2CC2C#N)nn1 (stereo not given) | 97 to 100
COCCOc1cc([N+](=O)[O-])c2[nH]c(C3=NCC(C(OC)OC)S3)cc2c1 (stereo not given) | 100 to 101
O=C(O)c1cc(-n2c(-c3ccc(Cl)c(Cl)c3)cc3c2CCCC3)ccc1O | 210 to 211
c1ccc(CN2C[C@@H]3SCCC(c4ccccc4)(c4ccccc4)[C@@H]3C2)cc1 (racemic) | 130
CN(C)CCOc1ccc(C#N)cn1 | 58

Structure (SMILES) | melting point [°C]
CN1C(=O)NC(c2ccccc2)c2cc3c(cc21)OCO3 (stereo not given) | 228 to 230
CCCCCCCCc1c(CC)nc2nc(Cl)nn2c1N | 202 to 203
CC(C)(C)NC(=O)[C@@H]1CCCN1C(=O)[C@@H](O)[C@H](Cc1ccccc1)NC(=O)[C@H](CC(N)=O)NC(=O)COC1CCC(NC(=O)OCc2ccccc2)CC1 (stereo not given in full) | 109 to 114
O=C(NCCN1CCCC1)c1ccc(-c2ccc3nnn(Cc4ccc5ncccc5c4)c3n2)cc1 | 135 to 137
CCOC(OCC)c1cc(NC(c2ccccc2)(c2ccccc2)c2ccccc2)c(F)c(C2CCCO2)n1 (stereo not given) | 149 to 150
CCc1c(-c2ccc(OCc3ccccc3)cc2)c2c(C(=O)N(C)C)cc3cccc1n32 | 92 to 95
CN(Cc1cc(C(F)(F)F)cc(C(F)(F)F)c1)C(=O)c1nc(O)ncc1-c1ccccc1 | 218 to 220
O=c1ccc(-c2ccncn2)c[nH]1 | > 250
COc1c2c(c(OC)c(OC)c1OC)CCC(CCI)CC2 | 75 to 82
CC(C)c1nn(-c2ccc(C(F)(F)F)cn2)cc1CCCOc1nn(C)cc1CCC(=O)O | 124 to 125
CCCCOCCOc1ccc(-c2ccc(N3CCC(C)CC3)c(C=C(C)C(=O)O)c2)cc1 | 154 to 155
CCCCC(CC)(C(=O)O)C(=O)O | 161 to 170
OC[C@H]1C[C@@H](n2cnc3cc(Cl)c(Cl)cc32)[C@H](O)[C@@H]1O | 222 to 225
Fc1cc(F)cc(Cn2c(S)nc3ccccc32)c1 | 179 to 180
COC1CCc2c(c(C)[nH]c(=O)c2C#N)C1 (stereo not given) | 257 to 259
O=C1N(N2CCCCC2)c2ccccc2C1(Cc1ccccc1)Cc1ccccc1 | 94 to 96
CC(=O)OCC(=O)C1(O)CCC2C3CC=C4C=C(OC(C)=O)C=CC4(C)C34OC4CC21C (stereo not given) | 194
CN(C)c1ccc(C2(CNC(=O)Nc3c(F)cc(F)cc3CCc3cc(C(C)(C)C)c(O)c(C(C)(C)C)c3)CCCC2)cc1 | 165 to 166
CN1C(=O)C2(COc3cc4c(cc32)OCCO4)c2c(N3CCOCC3)cccc21 (stereo not given) | 246 to 249
c1ccc(OCC2CO2)c(Cc2cccc3[nH]ccc23)c1 (stereo not given) | 78
O=C1c2ccccc2-n2cnc(-c3nc(CCl)cs3)c2[C@@H]2CCN12 | 248 to 249

Now from value to compound:

melting point [°C] | Structure (SMILES)
96.5 to 97 | O=C1C=CC(=O)N1CO
165 to 167 | Cc1nc(C(F)(F)F)ccc1C(=O)C1=C(S(=O)(=O)c2ccccc2)CCCC1=O
154 to 157 | CN1C=CC(c2ccccc2)=C(O)C1
107 to 108 | CON=C(c1cc(C)no1)c1ccccc1COc1cc(C)ccc1C
193 to 196 | CCNC(=O)Nc1ccc(-c2ccc3nnn(Cc4ccc5ncccc5c4)c3n2)cc1
146 | CCCCNc1cc(C(=O)OC)cc(S(N)(=O)=O)c1Oc1ccccc1
160 to 162 | CCOc1cccc(-n2nc(C)c3c(O)c(C(=O)c4ccccc4)cnc32)n1
95 to 97 | COC(=O)CCCCNC(=O)C(COS(C)(=O)=O)NS(=O)(=O)c1ccc(Cl)cc1 (racemic)
105 to 108 | CC(C)(C)c1nn(-c2c(Cl)cc(C(F)(F)F)cc2Cl)c(Br)c1[N+](=O)[O-]
68.7 to 69 | CCOC(=O)C(O)(CC(=O)c1ccc(C)c(F)c1)C(=O)OCC
108 to 110 | Cc1ccc(C2=C(c3ccc(S(N)(=O)=O)cc3)CCC2)cn1
183 to 184 | O=C(O)C1=COc2ccccc2O1
81 to 82 | Nn1cccc1C(=O)c1cccs1
182 to 186 | Cc1csc2nc3cccc(C(F)(F)F)c3c(=O)n12
195 | CCOC(=O)c1cn(CC)c2nc(N3CCN(C=O)CC3)ncc2c1=O
87 | O=C(O)CCCC(=O)CCCc1ccccc1CCCC(=O)O
> 250 | CCOCc1nc2c(c(C)c(C)n3nnnc23)n1CCNC(=O)Nc1ccccc1
160 | O=C(Nc1cccnc1Cl)c1ccccc1[N+](=O)[O-]
56 to 58 | CCCCC1=CC(=C(Br)Br)N(Cc2ccccc2)C1=O

melting point [°C] | Structure (SMILES)
196 to 198 | CC(=O)NC1CCN(c2ccc(Cl)cn2)CC1
65 | CC(C)(C)OC(=O)n1ccc2cnccc21
250 to 252 | COc1ccc(C(=O)Nc2ccccc2)cc1NS(=O)(=O)c1cn(C)cn1
122 to 123 | CC(C)(C)OC(=O)N1CCN(c2cccc([N+](=O)[O-])c2)C(=O)C1
164 to 167 | CCCCC(CC)C(=O)Nc1ccc2ccn(Cc3ccc(C(=O)OC)c4ccoc34)c2c1 (stereo not given)
153 to 154 | CC(C)c1n[nH]c2c(NCc3ccccc3)ncnc12
126 to 131 | CCOC(=O)N1C=CC(c2c(-c3ccccc3)nc3ccc(Cl)nn23)C=N1 (stereo not given)
162 to 164 | COC(=O)c1c(Cc2ccc(C(=O)NCCO)cc2)c(=O)c2ccc(Cl)cc2n1-c1ccccc1
99 to 100 | CCOC(=O)NC(=S)Nc1ncc(C(F)(F)F)cc1F
125 | CC1(C)NC(=O)N(CC(CCS(=O)(=O)c2ccc(-c3ccc(C(F)(F)F)cc3)cc2)N(O)C=O)C1=O (stereo not given)
73 to 75 | Cc1nc(-c2cccc(C(F)(F)F)c2)ccc1CO
132 to 134 | OCCCCCNc1nccc2cc3c(cc12)OCO3
90 to 98 | CCCNC(=O)C(C)Cc1ccc2c(CCC)cn(Cc3ccc(C(=O)O)cc3OC)c2c1 (stereo not given)
115 to 117 | COc1cc(CCNC(=O)[C@@H](N)C(C)C)ccc1OCC#Cc1ccc(Cl)cc1
112 | COc1nc(C)nc(NC(=N)SC)n1
225 to 226 | COC(=O)c1ccc(-c2cc(-c3ccc(Cl)cc3)no2)cc1
164 to 166 | CCCCc1c2c(nn1CCC)c(N)nc1ccccc12
129 to 132 | CCOc1cc(OC)c2cc(C(=O)CN=[N+]=[N-])ccc2n1
148 to 152 | CCCCc1nc(Cl)c(C(=O)O)n1Cc1ccc2oc(-c3ccccc3C(=O)O)c(Br)c2c1

melting point [°C] | Structure (SMILES)
95 to 96 | COCNC(=S)n1nc(Oc2c(Cl)cc(C(F)(F)F)cc2Cl)cc1C
98 | COc1ccc(S(=O)(=O)C(C)(Cc2ccc(OCCN3CCCCC3)cc2)C(=O)NO)cc1 (stereo not given)
189 to 190 | NS(=O)(=O)c1ccc(N2CCN(CC[C@H]3OCCc4ccccc43)CC2)cc1
> 250 | Cc1cc(-c2ccc(C(F)(F)F)cc2)nc(-c2cccc(-c3cccc(S(=O)(=O)NC(C)(C)C)c3)n2)n1
250 to 251 | CN1N=C(c2ccc(F)cc2)c2ccc(Cl)cc2CS1(=O)=O
85.5 to 86.1 | CSc1cc(C(=O)c2cnoc2C2CC2)ccc1C
82 to 83 | Cc1c(-c2ccccc2)on(CC(O)CCl)c1=O (stereo not given)
172 | CCOC(=O)C(=CC=C(O)C(=O)O)Sc1ccccc1
61 to 62.5 | O=C(Cc1ccc(F)cc1)c1cccs1
216 to 218 | CCOC(=O)c1cn(C2CC2)c2nc(S(=O)(=O)c3ccc(C)cc3)c(F)cc2c1=O
246 to 252 | O=C1Nc2ccc(-c3ccc(Cl)cc3)cc2C1=O
210 to 213 | COCc1c[nH]c2c([N+](=O)[O-])ccc(C)c2c1=O
149 to 150 | O=C(Nc1ccccc1)c1cccc(C2=NOCCS2)c1
93.2 to 94.6 | CCOC(=O)c1cc(C)n(-c2cccc(Cl)c2)c1-c1ccccc1
265 to 267 | CN1CC(C(=O)c2c[nH]cc2Cc2ccc(F)cc2)=C(O)C1=O
278 to 280 | CCOC(=O)/C=C/c1cc(F)c2ncc(C(=O)NCc3ccc(Cl)cc3)c(O)c2c1
154 to 156 | CCCc1c(OCCCS(=O)(=O)c2ccc(CC(=O)O)cn2)ccc(C(C)=O)c1O
148 to 149 | Cc1ccc(S(=O)(=O)Cl)c(C)c1NC(=O)CCl
138 to 140 | Cc1cccc(S(=O)(=O)Nc2onc(C)c2Br)c1
